Laboratory results published in patent US8129396B2, “2-[1H-benzimidazol-2(3H)-ylidene]-2-(pyrimidin-2-yl)acetamides and 2-[benzothiazol-2(3H)-ylidene]-2-(pyrimidin-2-yl)acetamides as kinase inhibitors” (Telik, Inc., priority 2008, dated 2012).
pIC50: −log10 of the molar value.

How the values were obtained:
Aurora A kinase = molecular target: T1, Aurora A kinase (Homo sapiens, UniProt O14965); assay: Aurora A kinase assay (IMAP fluorescence polarization); type: biochemical; details: 10 μM ATP; rounded to 1 significant figure; read-out: Aur-A IC50
T1 construct: purchased Upstate Biotech
T1 sequence (O14965 1-403): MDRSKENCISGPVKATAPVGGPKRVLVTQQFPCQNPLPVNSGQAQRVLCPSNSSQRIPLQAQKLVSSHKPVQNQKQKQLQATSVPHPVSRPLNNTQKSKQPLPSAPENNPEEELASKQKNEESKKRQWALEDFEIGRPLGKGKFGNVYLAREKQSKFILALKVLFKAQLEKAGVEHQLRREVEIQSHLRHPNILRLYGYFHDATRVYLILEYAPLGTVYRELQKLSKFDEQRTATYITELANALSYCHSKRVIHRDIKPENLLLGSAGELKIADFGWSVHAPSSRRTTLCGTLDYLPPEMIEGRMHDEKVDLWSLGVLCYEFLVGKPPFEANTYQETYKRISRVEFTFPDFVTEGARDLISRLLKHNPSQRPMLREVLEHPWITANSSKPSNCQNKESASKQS
Description: (§1) The cell lines HL60 (human promyelocytic leukemia) and HCT116 (human colon carcinoma) were obtained from the American Type Culture Collection, Manassas, Va., U.S.A., and HUVEC-2 (human umbilical vein endothelial cells) from BD Biosciences, Bedford, Mass., U.S.A. Aurora A kinase was obtained from Upstate Biotech, Billerica, Mass., U.S.A.; Aurora B kinase from BPS Bioscience, San Diego, Calif., U.S.A.; and VEGFR2 kinase from Cell Signaling Technology, Danvers, Mass., U.S.A. The IMAP FP Screening Express kit was obtained from Molecular Devices, Sunnyvale, Calif., U.S.A.; the CellTiter-Glo assay kit from Promega Corporation, Madison, Wis., U.S.A.; and the Cellular DNA Cytometric Analysis Reagent Kit and BrdU labeling and detection kit from Roche Diagnostics Corporation, Indianapolis, Ind., U.S.A. All products were used in accordance with manufacturer's directions. Kinase inhibition assays and the histone phosphorylation (p-H3) assay were conducted in duplicate, and the cytotoxicity and HUVEC proliferation assays were conducted in triplicate, in each case with solvent control.
Aurora A kinase assay: the test compounds were diluted in dimethylsulfoxide (DMSO, eight concentrations with serial 3-fold dilutions) and incubated (final DMSO concentration 2.5%) with Aurora A kinase at room temperature for 5 min in kinase reaction buffer with 1 mM dithiothreitol (IMAP FP Screening Express). The kinase reaction was initiated by adding 100 nM fluorescein labeled PKAtide and 10 μM adenosine triphosphate (ATP), and allowed to continue for 45 min at room temperature, after which it was stopped by adding binding reagent (1:400 dilution in binding buffer A). After 30 min of room temperature incubation with shaking, the fluorescence polarization was measured on a LJL plate reader. Aurora B kinase assay: performed as for the Aurora A kinase assay, but using Aurora B kinase instead of Aurora A kinase.

Aurora B kinase = molecular target: T2, Aurora B kinase (Homo sapiens, UniProt Q96GD4); assay: Aurora B kinase assay (IMAP fluorescence polarization); type: biochemical; details: 10 μM ATP; rounded to 1 significant figure; read-out: Aur-B IC50
T2 construct: purchased BPS Bioscience
T2 sequence (Q96GD4 whole entry): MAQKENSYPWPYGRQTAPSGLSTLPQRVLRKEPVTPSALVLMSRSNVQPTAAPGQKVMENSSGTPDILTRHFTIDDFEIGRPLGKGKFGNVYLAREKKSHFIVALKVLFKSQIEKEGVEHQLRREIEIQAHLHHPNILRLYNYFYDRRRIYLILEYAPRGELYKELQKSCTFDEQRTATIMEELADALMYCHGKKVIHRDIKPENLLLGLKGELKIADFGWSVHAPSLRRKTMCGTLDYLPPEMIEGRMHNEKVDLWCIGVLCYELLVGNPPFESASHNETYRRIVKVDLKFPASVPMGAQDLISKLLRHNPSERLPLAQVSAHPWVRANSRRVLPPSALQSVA
Description: as §1
The kinase reaction was initiated by adding 100 nM fluorescein labeled PKAtide and 10 μM adenosine triphosphate (ATP), and allowed to continue for 45 min at room temperature, after which it was stopped by adding binding reagent (1:400 dilution in binding buffer A). After 30 min of room temperature incubation with shaking, the fluorescence polarization was measured on a LJL plate reader. Aurora B kinase assay: performed as for the Aurora A kinase assay, but using Aurora B kinase instead of Aurora A kinase.

[1] = system: HUVEC-2 (human umbilical vein endothelial cells); assay: HUVEC VEGF-dependent proliferation assay (BrdU); type: cell-based; details: VEGF (25 ng/mL)-dependent proliferation, read-out: HUVEC IC50
Description: as §1
HUVEC-2 cells were seeded at 10^4 cells/well in a 96-well plate coated with 0.1% gelatin in complete medium. […] The compounds were serially diluted in DMSO, and added to the cells at 0.5% DMSO final concentration. After 2 hr, VEGF (25 ng/mL) was added; and after a further day, 5-bromo-2-deoxyuridine (BrdU, 10 μM) was added to label proliferating cells, and the cells incubated for another day. The plates were then processed using the Roche BrdU labeling and detection kit, and the VEGF-dependent antiproliferative activity of the compounds determined.

VEGFR2 kinase = molecular target: T3, VEGFR2 kinase (Homo sapiens, UniProt P35968); assay: VEGFR2 kinase assay; type: biochemical; details: 6 μM ATP, 1 mM MnCl2; rounded to 1 significant figure
T3 construct: purchased Cell Signaling Technology
T3 sequence (P35968 20-1356): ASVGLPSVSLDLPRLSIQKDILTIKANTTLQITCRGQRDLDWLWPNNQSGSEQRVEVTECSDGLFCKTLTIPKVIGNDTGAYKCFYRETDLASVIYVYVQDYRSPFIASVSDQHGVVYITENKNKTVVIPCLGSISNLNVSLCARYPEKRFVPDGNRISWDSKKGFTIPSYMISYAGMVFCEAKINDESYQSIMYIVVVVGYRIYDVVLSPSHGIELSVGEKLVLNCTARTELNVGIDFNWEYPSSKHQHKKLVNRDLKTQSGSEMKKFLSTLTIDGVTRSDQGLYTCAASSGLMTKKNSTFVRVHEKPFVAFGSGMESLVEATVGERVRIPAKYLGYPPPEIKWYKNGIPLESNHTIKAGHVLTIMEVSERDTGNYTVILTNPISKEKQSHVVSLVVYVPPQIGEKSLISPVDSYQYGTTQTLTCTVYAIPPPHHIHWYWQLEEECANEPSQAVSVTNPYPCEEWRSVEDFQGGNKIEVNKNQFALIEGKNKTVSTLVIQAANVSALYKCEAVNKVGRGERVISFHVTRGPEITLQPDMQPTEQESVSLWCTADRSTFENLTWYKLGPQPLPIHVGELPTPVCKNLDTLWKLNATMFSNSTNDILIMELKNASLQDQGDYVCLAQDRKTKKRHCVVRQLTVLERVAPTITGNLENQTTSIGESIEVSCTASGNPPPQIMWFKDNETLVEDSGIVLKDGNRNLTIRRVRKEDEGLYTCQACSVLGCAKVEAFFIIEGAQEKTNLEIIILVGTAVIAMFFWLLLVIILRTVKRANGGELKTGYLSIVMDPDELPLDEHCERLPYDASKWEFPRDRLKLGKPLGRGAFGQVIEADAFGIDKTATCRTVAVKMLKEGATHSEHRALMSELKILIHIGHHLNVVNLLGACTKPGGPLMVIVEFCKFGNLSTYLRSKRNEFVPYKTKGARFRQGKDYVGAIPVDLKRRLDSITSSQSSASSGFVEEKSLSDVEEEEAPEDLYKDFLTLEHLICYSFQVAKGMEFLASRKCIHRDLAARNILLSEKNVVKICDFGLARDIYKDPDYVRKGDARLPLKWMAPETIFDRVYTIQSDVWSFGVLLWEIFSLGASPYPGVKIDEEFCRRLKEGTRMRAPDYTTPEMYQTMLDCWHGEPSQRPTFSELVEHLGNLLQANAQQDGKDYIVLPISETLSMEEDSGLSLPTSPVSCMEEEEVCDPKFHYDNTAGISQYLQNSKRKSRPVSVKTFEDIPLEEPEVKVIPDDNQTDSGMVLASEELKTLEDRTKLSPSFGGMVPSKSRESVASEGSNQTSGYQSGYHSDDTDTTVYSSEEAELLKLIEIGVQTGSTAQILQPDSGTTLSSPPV
Description: as §1
This assay was performed as for the Aurora A kinase assay, using VEGFR2 kinase, CSKtide as the substrate with 6 μM ATP and 1 mM MnCl2, a kinase reaction time of 1 hr, and dilution of the binding reagent 1:1200 in binding buffer A/binding buffer B (1:1).

[2] = system: HCT116 (human colon carcinoma) cells; assay: HCT116 cytotoxicity assay (CellTiter-Glo); type: cell-based; details: HCT-116, 72 h, cytotoxicity, three days culture, read-out: HCT116 IC50
Description: as §1
Log-phase cells were trypsinized, collected by centrifugation, and resuspended in a small volume of fresh medium, and the density of viable cells was determined following Trypan Blue staining. Cells were diluted in fresh media (1×10^4 cells/mL for HL60 and 4×10^4 cells/mL for HCT116 cells), the test compounds (concentrations between 0.1 μM and 200 μM, dissolved in DMSO, 50 μL) added immediately after dilution to achieve a final DMSO concentration of 0.5%, then the suspensions added at 150 μL/well to 96-well plates, and incubated overnight to allow attachment in the case of adherent cells. The cells were cultured for three days (about three doubling times). The cells were then collected by centrifugation, and 100 μL of the culture supernatant was replaced by the CellTiter-Glo reagent. After incubation for 15 minutes at room temperature, the plate was read with a luminometer.

p-H3 in HCT116 cells = assay: Histone phosphorylation (p-H3) assay; type: cell-based; details: Homo sapiens, HCT-116; HCT116 cells, 4 hr incubation; read-out: p-H3 IC50
Description: as §1
Log phase HCT116 cells were seeded at 2.5×10^4 cells/well in a 96-well plate and allowed to attach overnight. The test compounds were diluted in DMSO (8 concentrations with serial 3-fold dilutions) and added to the cells (0.5% DMSO final concentration), and the cells incubated for 4 hr. The cells were then washed three times with cold phosphate-buffered saline (PBS), and lysis buffer was added. After 30 min shaking at 4° C. and centrifugation, the supernatants were transferred to a nitrocellulose membrane by a “dot-blot” apparatus. After washing the wells, the membrane was processed for Western blot. Detection of p-H3 and β-actin was performed on the same membrane with primary rabbit anti-p-H3 and mouse anti-β-actin antibodies followed by secondary goat anti-rabbit IRDye800 and goat anti-mouse AlexaFluor 680 antibodies. The membranes were scanned on an Odyssey scanner.

Compound	pIC50 (Aurora A kinase)	pIC50 (Aurora B kinase)	pIC50 [1]	pIC50 (VEGFR2 kinase)	pIC50 [2]	pIC50 (p-H3 in HCT116 cells)
NCC(=O)Nc1ccc2c(c1)SC(=C(C(N)=O)c1nccc(C(F)(F)F)n1)N2 (single isomer, unassigned) [Compound 76A, 2-{6-[(2-aminoacetyl)-amino]benzothiazol-2(3H)-ylidene}-2-(4-trifluoromethylpyrimidin-2-yl)acetamide]	7.30	8.30	7.00	7.10	6.15	6.70
CN(C)CCCNC(=O)c1ccc2c(c1)N/C(=C(/C(N)=O)c1nccc(C(F)(F)F)n1)N2 [Compound 62A]	7.15	8.00	7.22	8.22	7.22	6.40
COc1ccnc(/C(C(N)=O)=C2/Nc3ccccc3S2)n1 [Compound 16A]	7.00	7.70	5.70	6.52	5.70	5.70
NCCNC(=O)c1ccc2c(c1)S/C(=C(/C(N)=O)c1nccc(C(F)(F)F)n1)N2 [Compound 63A]	7.52	7.52	7.22	8.30	6.70	6.40
CCN1CCN(CCCNC(=O)c2ccc3c(c2)S/C(=C(/C(N)=O)c2nccc(C(F)(F)F)n2)N3)CC1 [Compound 56A]	7.70	7.70	7.40	7.70	7.40	6.15
NC(=O)/C(=C1\Nc2ccc(C(=O)O)cc2N1)c1nccc(C(F)(F)F)n1 [Compound 28A]	8.30	8.30	7.40	8.00	5.40	5.40
NC(=O)/C(=C1\Nc2ccc(OCCCN3CCOCC3)cc2S1)c1nccc(C(F)(F)F)n1 [Compound 113A]	7.52	7.70	6.70	7.40	6.22	6.40
NC(=O)/C(=C1\Nc2ccc(C(=O)Nc3ccncc3)cc2N1)c1nccc(C(F)(F)F)n1 [Compound 44A]	8.00	8.00	7.10	8.00	6.70	6.70
CN1CCN(CCCOc2ccc3c(c2)S/C(=C(/C(N)=O)c2nccc(C(F)(F)F)n2)N3)CC1 [Compound 115A]	7.40	7.52	7.00	7.70	7.00	6.70
NC(=O)/C(=C1\Nc2ccc(S(=O)(=O)N3CCNCC3)cc2S1)c1nccc(C(F)(F)F)n1 [Compound 129A]	7.52	8.00	6.52	7.00	6.00	6.00
